Experiment [1] concerns the target T1, c-Myc353-437 (monomeric c-Myc bHLH-ZIP) (Homo sapiens, UniProt P01106).
T1 construct: recombinant monomeric c Myc bHLH-ZIP (amino acids 353-437); 6xHis with TEV site (N, cleaved yes); made in house; host or cells: E. coli BL21DE3(pLysS)
As to the kind of experiment: Fluorescence polarization titration, c-Myc bHLH-ZIP binding. The settings on record: Table 1; FP of nitrobenzofurazan moiety, c-Myc353-437; read-out: KD (c-Myc affinity, bivalent). The text has this:
A c-Myc353-437 full-length bHLH-ZIP domain and its truncated version c-Myc390-439 were produced from the c-Myc/pET SKB3 construct, kindly supplied by Dr. S. K. Nair (University of Illinois, Urbana-Champaign), by insertion into the pET151D vector, encoding an N-terminal hexahistidine (6× His), separated by a TEV protease digestion site, with the TOPO® ligation system, and over-expressed in E. coli BL21DE3(pLysS). The 6× His tagged human Max isoform p21, with low homodimerization affinity^70, cloned into the pQE10 vector (Qiagen, Inc.), was over-expressed in E. coli M15(pRep4). Bacterial cultures were grown at 37° C. in LB medium to OD600≈0.8, then induced with 0.5 mM IPTG for 5 hours. Proteins were purified by Ni-agarose chromatography with a pH gradient elution. The 6× His tag of c-MYC353-437 and c-Myc390-439 was cleaved using TEV protease (the TEV protease was expressed in a pET24 vector [courtesy of S. K. Nair] and purified by Ni-agarose chromatography under native conditions). All the proteins were further purified by HPLC and lyophilized. Protein concentrations were determined by measurement of OD280. The synthetic peptide c-Myc363-381 is described in Follis, A. V., Hammoudeh, D. I., Wang, H., Prochownik, E & Metallo, S. J. Structural rationale for the coupled binding and unfolding of the c-Myc oncoprotein by small molecules. Chemistry & Biology 15, 1149-1155 (2008).
Samples were analyzed in a Photon Technology International QuantaMaster fluorimeter (Birmingham, N.J.) equipped with polymer sheet polarizers. Titration experiments were performed upon serial dilution of 1:1 equimolar solution of inhibitor and either c-Myc353-437, c-Myc390-439 or c-Myc363-381 in a 1×PBS buffer (137 mM NaCl, 2.7 mM KCl, 4.3 mM Na2HPO4, 1.4 mM KH2PO4, pH=7.4), 5% DMSO, over concentrations ranging between 200 μM and 1.5 nM. Excitation and emission wavelengths were independently determined for each inhibitor. Reported data represent the average of at least three independent experiments. Data were fit to a quadratic equation derived from the thermodynamic expression of binding equilibrium:
[formula] where [C]0 represents the total concentration of inhibitor and of c-Myc peptide. The value of KD was determined from the experimental polarization data by fitting to Eq. 2 using KaleidaGraph (Synergy Software, Reading, Pa.) where pol0 is the polarization in the absence of binding and Δpol is the total change in polarization (Park, S. H. & Raines, R. T. Fluorescence polarization assay to quantify protein-protein interactions. Methods in Molecular Biology 261, 161-6 (2004)).
[formula] Due to the very tight binding of some of the tested compounds, it was impossible to perform a full binding titration with an acceptable fluorescence intensity, therefore the polo parameter was experimentally determined from samples of each compound in the absence of c-Myc353-437 at a concentration of 25 μM. Binding specificity experiments were performed by monitoring the FP of 10 μM inhibitors solutions in the above-described buffer in the presence of equimolar p21 Max. […] Circular Dichroism.
Also in this case the c-Myc binding affinity was little affected by the introduction of the linker chain (Table 1, FIG. 11).
We then measured the affinity of the synthesized bivalent inhibitors, by monitoring the FP of the compounds nitrobenzofurazan moiety. […] The estimated free energy of binding of the bivalent compounds was roughly proportional to the sum of those of their monovalent components. In the thermodynamic analysis of multivalent binding a ΔG^s term is used to relate the free energy of binding of a multivalent compound to the sum of those of its monovalent components. This term implies the diverse energy contributions resulting from the linking of independent binding components. The ΔG^s term generally constitutes a negative contribution to the binding affinity of distinct binding components connected by a flexible linker to a given target.
On the technique in general: In fluorescence polarisation assays a small probe gives low polarisation when free and higher when bound to something large.

The subject of experiment [2] is Daudi Burkitt lymphoma cells. As to the kind of experiment: Burkitt's lymphoma cell growth inhibition (MTT assay). The settings on record: Homo sapiens. The format is cell-based. As to the method: (§1) These assays were performed as previously described using HL60 promyelocytic leukemia cells and Daudi Burkitt lymphoma cells, each of which expresses high levels of endogenous c-Myc (Wang, H. et al. Mol. Cancer Ther. 6, 2399-408 (2007)). As controls for non-specific effects of bivalent compounds, we utilized a c-Myc nulllizygous strain of rat fibroblasts (Mateyak, M. K., et al. Cell Growth & Differentiation 8, 1039-48 (1997)) expressing the c-Myc target genes MT-MC1 and HMGAIb, each of which restores a normal growth rate as well as the TGR1 fibroblast line from which the nullizygous line was derived (Wang, H. et al. Mol. Cancer Ther. 6, 2399-408 (2007); Mateyak, M. K., et al. Cell Growth & Differentiation 8, 1039-48 (1997); and Rothermund, K. et al. Cancer Research 65, 2097-107 (2005)). […] Cell quantification was performed on triplicate wells over the ensuing 4-5 days without changing the medium by measuring the absorbance at 490 nm using the MTT assay (Mosmann, T. Journal of Immunological Methods 65, 55-63 (1983)). IC50 values were estimated from linear regression of the inhibition data at the third day of each experiment.
(§2) We evaluated the efficacy of the linked compounds 11, 12, 13, 16, 17, 18 in inhibiting the c-Myc-Max interaction by measuring the binding of a target DNA sequence (E-Box) by the protein heterodimers in an electrophoretic mobility shift assay (EMSA). […] A fluorinated substitute of 14, 24, the choice of which was based upon the results of structure activity relationship studies described in Wang, H. et al. (Mol. Cancer Ther. 6, 2399-408 (2007)), was employed at this purpose (Muller, K., et al. Science 317, 1881-6 (2007) and Kirk, K. L. Current Topics in Medicinal Chemistry 6, 1447-56 (2006)).
Background: Tetrazolium dyes change colour on reduction, which living cells bring about.

Experiment [3] relates to HL60 promyelocytic leukemia cells. Briefly: HL60 cell growth inhibition (MTT assay). The format is cell-based. The settings on record: Homo sapiens, HL-60. As to the method: as §1, §2
[4] abbreviates: Table 3, MTT, third day, read-out: Growth inhibition BL.
[5] abbreviates: Table 3, MTT, third day, read-out: Growth inhibition HL60.

The source of these data is patent US8637556B2, “Linked Myc-max small molecule inhibitors” (University of Pittsburgh—Of the Commonwealth System of …, priority 2009, dated 2014).

Each structure is given as a SMILES string. Read-outs that look alike come from different tables or passages of the source. Some results are limits rather than exact numbers.

T1 sequence (P01106 368-452): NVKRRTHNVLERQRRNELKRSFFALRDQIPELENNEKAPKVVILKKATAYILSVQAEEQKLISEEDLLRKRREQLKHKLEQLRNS

For the compound `O=C1NC(=S)SC1=Cc1ccc(C(=O)NCCCCCNC(=O)c2ccc(Nc3ccc([N+](=O)[O-])c4nonc34)cc2)cc1` [compound 13], the Kd in experiment [1] was determined as 4.7 ± 0.8 nM. In addition, the IC50 in experiment [2] (setting [4]) was 5000 to 10000 nM; in experiment [3] (setting [5]) it was 6000 nM.
Taken in the same sequence, the figures for `CCc1ccc(C=C2SC(=O)N(CCCCCCNC(=O)c3cccc(Nc4ccc([N+](=O)[O-])c5nonc45)c3)C2=O)cc1` [compound 17] were 110 ± 20 nM, greater than 10000 nM and greater than 30000 nM.
For `O=C1NC(=S)S/C1=C\c1ccc(C(=O)NCCCCCNC(=O)c2cccc(Nc3ccc([N+](=O)[O-])c4nonc34)c2)cc1` [compound 12, N-[5-({3-[(7-nitro-2,1,3-benzoxadiazol-4-yl)amino]phenyl}formamido)pentyl]-4-{[(5Z)-4-oxo-2-sulfanylidene-1,3-thiazolidin-5-ylidene]methyl}benzamide] the same measures were 400 ± 100 nM, 20000 to 35000 nM and greater than 30000 nM.
As for `CCc1ccc(/C=C2\SC(=O)N(CCCCCCNC(=O)c3ccccc3Nc3ccc([N+](=O)[O-])c4nonc34)C2=O)cc1` [compound 16, N-{6-[(5Z)-5-[(4-ethylphenyl)methylidene]-2,4-dioxo-1,3-thiazolidin-3-yl]hexyl}-2-[(7-nitro-2,1,3-benzoxadiazol-4-yl)amino]benzamide amine], the Kd in experiment [1] came out at 2.2 ± 0.2 nM. Also, the IC50 fell in the range of 500 to 1000 nM in experiment [2] (BL cells, read-out: IC50); 700 to 900 nM in experiment [2] (setting [4]); 500 to 1000 nM in experiment [3] (HL60 cells, read-out: IC50); 500 to 700 nM in experiment [3] (setting [5]).
